Consider 26 compounds from ChEMBL document CHEMBL3046442, “Synthesis and Acaricidal Activity of Bicyclic Pyrazole-3-carboxamide Derivatives” (1992).

Common to all, as to format: functional
The test system of assay [1] is Tetranychus urticae. Kind of assay: Acaricidal activity against Tetranychus urticae (two-spotted spider mite) infested kidney bean leaf assessed as mortality at 3.1 ppm after 5 days. To be noted: 120 h.
Assay [2] has as its system Tetranychus urticae. Kind of assay: Acaricidal activity against Tetranychus urticae (two-spotted spider mite) infested kidney bean leaf assessed as mortality at 12.5 ppm after 5 days. To be noted: 120 h.
Assay [3] deals with Tetranychus urticae. Kind of assay: Acaricidal activity against Tetranychus urticae (two-spotted spider mite) infested kidney bean leaf assessed as mortality at 50 ppm after 5 days. To be noted: 120 h.
For assay [4], the system named is Tetranychus urticae. The assay can be described thus: Acaricidal activity against Tetranychus urticae (two-spotted spider mite) infested kidney bean leaf assessed as mortality at 200 ppm after 5 days. Particulars: 120 h.
The subject of assay [5] is Panonychus citri. Kind of assay: Ovicidal activity against Panonychus citri eggs laid on compound-treated mandarian orange measured after 7 days. To be noted: 168 h.
Assay [6] deals with Panonychus citri. Kind of assay: Adulticidal activity against adult Panonychus citri infested mandarian orange after 2 days. Particulars: 48 h.
Assay [7] deals with Tetranychus urticae. Kind of assay: Ovicidal activity against Tetranychus urticae (two-spotted spider mite) eggs laid on compound-treated kidney bean leaf disk measured after 7 days. Particulars: foliar, 168 h.
Assay [8] deals with Tetranychus urticae. The assay can be described thus: Adulticidal activity against adult Tetranychus urticae (two-spotted spider mite) infested kidney bean leaf disk after 2 days. To be noted: foliar, 48 h.

In brackets after ≈: the same amount, converted by molar mass.

With `Cn1nc2c(c1C(=O)NCc1ccc(C(C)(C)C)cc1)CCCC2`, the mortality at 3.1 ppm with Tetranychus urticae [1] turned out to be 0%. Further, the mortality at 12.5 ppm in the assay on Tetranychus urticae [2] is 0%. In addition, the mortality at 50 ppm in the assay with Tetranychus urticae [3] came out at 1%. Further, the mortality at 200 ppm with Tetranychus urticae [4] was 2%.
For `CC1CCCc2c1nn(C)c2C(=O)NCc1ccc(C(C)(C)C)cc1` (stereo unspecified), in the assay with Tetranychus urticae [1], the mortality at 3.1 ppm was determined as 0%. Also, the mortality at 12.5 ppm in the assay with Tetranychus urticae [2] came out at 0%. The mortality at 50 ppm with Tetranychus urticae [3] is 0%. Also, the mortality at 200 ppm with Tetranychus urticae [4] amounted to 0%.
On to `CC1CC(C)c2c1nn(C)c2C(=O)NCc1ccc(C(C)(C)C)cc1` (stereo unspecified), for which, in the assay on Tetranychus urticae [1], the mortality at 3.1 ppm was found to be 0%. For the same compound, the mortality at 12.5 ppm in the assay with Tetranychus urticae [2] turned out to be 0%. In addition, in the assay with Tetranychus urticae [3], the mortality at 50 ppm was 0%. Moreover, the mortality at 200 ppm with Tetranychus urticae [4] came out at 1%.
As for `CCC1CCc2c1nn(C)c2C(=O)NCc1ccc(C(C)(C)C)cc1` (stereo unspecified), the mortality at 3.1 ppm with Tetranychus urticae [1] turned out to be 0%. Further, the mortality at 12.5 ppm in the assay on Tetranychus urticae [2] was determined as 0%. For the same compound, the mortality at 50 ppm in the assay with Tetranychus urticae [3] was 0%. Also, in the assay on Tetranychus urticae [4], the mortality at 200 ppm was determined as 0%.
For `Cn1nc2c(c1C(=O)NCc1ccc([Si](C)(C)C)cc1)CCC2`, in the assay with Tetranychus urticae [1], the mortality at 3.1 ppm stood at 1%. For the same compound, in the assay with Tetranychus urticae [2], the mortality at 12.5 ppm is 3%. In the assay with Tetranychus urticae [3], the mortality at 50 ppm is 3%. Besides, in the assay on Tetranychus urticae [4], the mortality at 200 ppm turned out to be 3%.
Take `CC1CCc2c1nn(C)c2C(=O)NCc1ccc(C(C)(C)C)cc1` (stereo unspecified): the LC50 in the assay on Panonychus citri [5] is 6.3 µg/mL (≈ 19.4 µM); in the assay on Panonychus citri [6], 0.42 µg/mL (≈ 1.29 µM); with Tetranychus urticae [7] it was 1.7 µg/mL (≈ 5.22 µM); in the assay on Tetranychus urticae [8], 2.1 µg/mL (≈ 6.45 µM). Also, the mortality at 3.1 ppm in the assay with Tetranychus urticae [1] was determined as 3%. For the same compound, the mortality at 12.5 ppm in the assay on Tetranychus urticae [2] worked out at 3%. In the assay with Tetranychus urticae [3], the mortality at 50 ppm was determined as 3%. Moreover, the mortality at 200 ppm in the assay with Tetranychus urticae [4] stood at 3%.
Consider `Cn1nc2c(c1C(=O)NCc1ccc(CC(C)(C)C)cc1)CCC2`, for which the mortality at 3.1 ppm in the assay on Tetranychus urticae [1] worked out at 0%. Besides, in the assay with Tetranychus urticae [2], the mortality at 12.5 ppm was determined as 0%. The mortality at 50 ppm in the assay with Tetranychus urticae [3] stood at 1%. Besides, the mortality at 200 ppm in the assay on Tetranychus urticae [4] is 3%.
On to `CCC(C)c1ccc(CNC(=O)c2c3c(nn2C)CCC3)cc1` (stereo unspecified), for which the mortality at 3.1 ppm in the assay on Tetranychus urticae [1] came out at 0%. In addition, the mortality at 12.5 ppm with Tetranychus urticae [2] was determined as 1%. Besides, in the assay on Tetranychus urticae [3], the mortality at 50 ppm was 3%. The mortality at 200 ppm in the assay on Tetranychus urticae [4] was found to be 3%.
For `CC(C)Cc1ccc(CNC(=O)c2c3c(nn2C)CCC3)cc1`, the mortality at 3.1 ppm in the assay with Tetranychus urticae [1] amounted to 0%. Besides, in the assay with Tetranychus urticae [2], the mortality at 12.5 ppm is 0%. Further, the mortality at 50 ppm in the assay with Tetranychus urticae [3] came out at 0%. The mortality at 200 ppm in the assay with Tetranychus urticae [4] turned out to be 1%.
`CCCCc1ccc(CNC(=O)c2c3c(nn2C)CCC3)cc1`: the mortality at 3.1 ppm with Tetranychus urticae [1] came to 0%. The mortality at 12.5 ppm in the assay with Tetranychus urticae [2] is 0%. In the assay with Tetranychus urticae [3], the mortality at 50 ppm turned out to be 0%. Further, in the assay on Tetranychus urticae [4], the mortality at 200 ppm was determined as 2%.
`CC(C)c1ccc(CNC(=O)c2c3c(nn2C)CCC3)cc1`: in the assay on Tetranychus urticae [1], the mortality at 3.1 ppm amounted to 0%. For the same compound, in the assay on Tetranychus urticae [2], the mortality at 12.5 ppm is 1%. The mortality at 50 ppm with Tetranychus urticae [3] was determined as 2%. For the same compound, the mortality at 200 ppm in the assay with Tetranychus urticae [4] was 3%.
For `Cc1ccc(CNC(=O)c2c3c(nn2C)CCC3)cc1`, in that order: 0%, 0%, 0% and 0%.
For `Cn1nc2c(c1C(=O)NCc1ccccc1)CCC2`, in that order: 0%, 0%, 0% and 0%.
Turning to `Cn1nc2c(c1C(=O)SCc1ccc(C(C)(C)C)cc1)CCC2`, the mortality at 50 ppm with Tetranychus urticae [3] stood at 0%. Moreover, in the assay on Tetranychus urticae [4], the mortality at 200 ppm was 0%.
Regarding `Cn1nc2c(c1C(=O)OCc1ccc(C(C)(C)C)cc1)CCC2`, in the assay with Tetranychus urticae [3], the mortality at 50 ppm turned out to be 0%. In addition, in the assay with Tetranychus urticae [4], the mortality at 200 ppm stood at 1%.
On the same counts, the results for `Cn1nc2c(c1C(=S)NCc1ccc(C(C)(C)C)cc1)CCC2` are 0% and 0%.
For `CN(Cc1ccc(C(C)(C)C)cc1)C(=O)c1c2c(nn1C)CCC2`, in that order: 0% and 0%.
On the same counts, the results for `Cn1nc2c(c1C(=O)NCCc1ccc(C(C)(C)C)cc1)CCC2` are 0% and 0%.
`CC(C)(C)c1ccc(CNC(=O)c2c3c(nn2-c2ccccc2)CCC3)cc1`: the mortality at 50 ppm in the assay on Tetranychus urticae [3] turned out to be 0%. Also, the mortality at 200 ppm with Tetranychus urticae [4] was found to be 0%.
Regarding `CC(C)(C)c1ccc(CNC(=O)c2c3c(nn2C(C)(C)C)CCC3)cc1`, the mortality at 50 ppm in the assay on Tetranychus urticae [3] came out at 0%. Also, in the assay with Tetranychus urticae [4], the mortality at 200 ppm amounted to 0%.
As for `CCCCn1nc2c(c1C(=O)NCc1ccc(C(C)(C)C)cc1)CCC2`, in the assay with Tetranychus urticae [3], the mortality at 50 ppm was found to be 0%. In addition, the mortality at 200 ppm with Tetranychus urticae [4] stood at 0%.
Regarding `CC(C)n1nc2c(c1C(=O)NCc1ccc(C(C)(C)C)cc1)CCC2`, the mortality at 50 ppm in the assay on Tetranychus urticae [3] was found to be 0%. The mortality at 200 ppm in the assay with Tetranychus urticae [4] came to 0%.
On to `CCn1nc2c(c1C(=O)NCc1ccc(C(C)(C)C)cc1)CCC2`, for which the mortality at 50 ppm in the assay with Tetranychus urticae [3] amounted to 0%. The mortality at 200 ppm in the assay with Tetranychus urticae [4] was found to be 0%.
With `Cn1nc2c(c1C(=O)NCc1ccc(C(C)(C)C)cc1)CCC2`, the mortality at 3.1 ppm in the assay on Tetranychus urticae [1] turned out to be 2%. Further, the mortality at 12.5 ppm with Tetranychus urticae [2] is 3%. In addition, the mortality at 50 ppm in the assay with Tetranychus urticae [3] came out at 3%. The mortality at 200 ppm with Tetranychus urticae [4] turned out to be 3%.
For the compound `CC(C)(C)c1ccc(CNC(=O)c2[nH]nc3c2CCC3)cc1`, in the assay with Tetranychus urticae [3], the mortality at 50 ppm came to 0%. Besides, the mortality at 200 ppm in the assay with Tetranychus urticae [4] came to 0%.
As for `CCc1nn(C)c(C(=O)NCc2ccc(C(C)(C)C)cc2)c1Cl` [TEBUFENPYRAD], the LC50 came out at 3.9 µg/mL (≈ 11.7 µM) in the assay on Panonychus citri [5], 0.5 µg/mL (≈ 1.5 µM) in the assay with Panonychus citri [6], 0.96 µg/mL (≈ 2.88 µM) with Tetranychus urticae [7] and 3.7 µg/mL (≈ 11.1 µM) in the assay with Tetranychus urticae [8].
